What was measured:
Test in all cases: relative viability (nuclei count vs DMSO), 5 days (fraction); higher = more cells survive
[1] = compound: Cn1c(Nc2ccc(C(F)(F)F)cc2)nc2cc(Oc3ccnc(-c4ncc(C(F)(F)F)[nH]4)c3)ccc21 [RAF265] + COc1cccc2cc(-c3nc([C@H]4CC[C@H](C(=O)O)CC4)n4ncnc(N)c34)[nH]c12 [OSI-027] (partner 0.5 µM)
Outline: (§1)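 Five library-drug doses in √10 steps were combined with a fixed anchor-drug dose, or a single drug was given alone, by pin tool to lung cancer cell lines in 1536-well plates the day after seeding. Nuclei were stained and counted after 5 days. Relative viability is the nuclei count in treated wells over that in vehicle wells, taken as the median of duplicate plates.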

[2] = compound: C1=CC=C2C(=C1)C=CC(=C2SSC3=C(C=CC4=CC=CC=C43)O)O [IPA-3] + C[C@@H](Oc1cc(-c2cnn(C3CCNCC3)c2)cnc1N)c1c(Cl)ccc(F)c1Cl [Crizotinib] (partner 1 µM)
Outline: as §1

[3] = compound: Cn1c(Nc2ccc(C(F)(F)F)cc2)nc2cc(Oc3ccnc(-c4ncc(C(F)(F)F)[nH]4)c3)ccc21 [RAF265] + Nc1nc2[nH]cc(CCc3ccc(C(=O)N[C@@H](CCC(=O)O)C(=O)O)cc3)c2c(=O)[nH]1 [Pemetrexed] (partner 0.2 µM)
Outline: as §1

[4] = compound: Cn1c(Nc2ccc(C(F)(F)F)cc2)nc2cc(Oc3ccnc(-c4ncc(C(F)(F)F)[nH]4)c3)ccc21 [RAF265] + CC(=O)c1c(C)c2cnc(Nc3ccc(N4CCNCC4)cn3)nc2n(C2CCCC2)c1=O [Palbociclib] (partner 0.5 µM)
Outline: as §1

Cell Line: UMC-11
- relative viability ([1]; first compound 0.01 µM): 0.491
- relative viability ([1]; first compound 0.03162 µM): 0.48
- relative viability ([1]; first compound 0.1 µM): 0.464
- relative viability ([1]; first compound 0.3162 µM): 0.457
- relative viability ([1]; first compound 1 µM): 0.378
- relative viability ([2]; first compound 0.2 µM): 0.605
- relative viability ([2]; first compound 0.6325 µM): 0.524
- relative viability ([2]; first compound 2 µM): 0.798
- relative viability ([2]; first compound 6.325 µM): 0.579
- relative viability ([2]; first compound 20 µM): 0.673
- relative viability ([3]; first compound 0.01 µM): 0.689
- relative viability ([3]; first compound 0.03162 µM): 0.854
- relative viability ([3]; first compound 0.1 µM): 0.764
- relative viability ([3]; first compound 0.3162 µM): 0.761
- relative viability ([3]; first compound 1 µM): 0.639
- relative viability ([4]; first compound 0.01 µM): 0.309
- relative viability ([4]; first compound 0.03162 µM): 0.336
- relative viability ([4]; first compound 0.1 µM): 0.334
- relative viability ([4]; first compound 0.3162 µM): 0.314
- relative viability ([4]; first compound 1 µM): 0.32

From the supplement of paper PMC10307832
